Data published in PubChem BioAssay (NCI).
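Compound exposure: 48 hours, 5 concentrations, 96-well plates. Definition used: TGI = concentration required for complete inhibition of growth.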

What was measured:
Experiment in all cases: NCI-60 cell line screen, 48 h
[1] = test system: 786-0 renal
[2] = test system: A498 renal
[3] = test system: A549 NSCLC
[4] = test system: ACHN renal
[5] = test system: CAKI-1 renal
[6] = test system: CCRF-CEM leukemia
[7] = test system: COLO 205 colon
[8] = test system: DLD-1 colon
[9] = test system: DMS 114 small cell lung
[10] = test system: DMS 273 small cell lung
[11] = test system: EKVX NSCLC
[12] = test system: HCC-2998 colon
[13] = test system: HCT-116 colon
[14] = test system: HCT-15 colon
[15] = test system: HL-60(TB) leukemia
[16] = test system: HOP-62 NSCLC
[17] = test system: HOP-92 NSCLC
[18] = test system: HT29 colon
[19] = test system: IGROV1 ovarian
[20] = test system: K-562 leukemia
[21] = test system: KM12 colon
[22] = test system: KM20L2 colon
[23] = test system: LOX IMVI melanoma
[24] = test system: LXFL 529 NSCLC
[25] = test system: M14 melanoma
[26] = test system: M19-MEL melanoma
[27] = test system: MALME-3M melanoma
[28] = test system: MOLT-4 leukemia
[29] = test system: NCI-H226 lung
[30] = test system: NCI-H23 lung
[31] = test system: NCI-H460 lung
[32] = test system: NCI-H522 lung
[33] = test system: OVCAR-3 ovarian
[34] = test system: OVCAR-4 ovarian
[35] = test system: OVCAR-5 ovarian
[36] = test system: OVCAR-8 ovarian
[37] = test system: RPMI-8226 leukemia
[38] = test system: RXF 393 renal
[39] = test system: SF-268 CNS
[40] = test system: SF-295 CNS
[41] = test system: SF-539 CNS
[42] = test system: SK-MEL-2 melanoma
[43] = test system: SK-MEL-28 melanoma
[44] = test system: SK-MEL-5 melanoma
[45] = test system: SK-OV-3 ovarian
[46] = test system: SN12C renal
[47] = test system: SNB-19 CNS
[48] = test system: SNB-75 CNS
[49] = test system: SNB-78 CNS
[50] = test system: SW-620 colon
[51] = test system: TK-10 renal
[52] = test system: U251 CNS
[53] = test system: UACC-257 melanoma
[54] = test system: UACC-62 melanoma
[55] = test system: UO-31 renal
[56] = test system: XF 498 CNS

## O=C(/C=C/c1c(O)ccc2ccccc12)c1ccccc1Cl
[1]
  TGI: > 100 µM
[2]
  TGI: > 100 µM
[3]
  TGI: > 100 µM
[4]
  TGI: > 100 µM
[5]
  TGI: > 100 µM
[6]
  TGI: 50.7 µM
[7]
  TGI: 31.9 µM
[8]
  TGI: > 100 µM
[9]
  TGI: 53.3 µM
[10]
  TGI: > 100 µM
[11]
  TGI: > 100 µM
[12]
  TGI: > 100 µM
[13]
  TGI: 61.3 µM
[14]
  TGI: > 100 µM
[15]
  TGI: 35.1 µM
[16]
  TGI: > 100 µM
[17]
  TGI: 75 µM
[18]
  TGI: > 100 µM
[19]
  TGI: > 100 µM
[20]
  TGI: 53.4 µM
[21]
  TGI: > 100 µM
[22]
  TGI: > 100 µM
[23]
  TGI: 53.8 µM
[24]
  TGI: > 100 µM
[25]
  TGI: 34.9 µM
[26]
  TGI: 28.3 µM
[27]
  TGI: 41.5 µM
[28]
  TGI: > 100 µM
[29]
  TGI: > 100 µM
[30]
  TGI: 52.2 µM
[31]
  TGI: > 100 µM
[32]
  TGI: 90 µM
[33]
  TGI: > 100 µM
[34]
  TGI: > 100 µM
[35]
  TGI: > 100 µM
[36]
  TGI: > 100 µM
[37]
  TGI: > 100 µM
[38]
  TGI: > 100 µM
[39]
  TGI: > 100 µM
[40]
  TGI: 73.9 µM
[41]
  TGI: 80.6 µM
[42]
  TGI: 92.3 µM
[43]
  TGI: 46.9 µM
[44]
  TGI: 32.3 µM
[45]
  TGI: > 100 µM
[46]
  TGI: 86.5 µM
[47]
  TGI: > 100 µM
[48]
  TGI: > 100 µM
[49]
  TGI: > 100 µM
[50]
  TGI: 57.1 µM
[51]
  TGI: > 100 µM
[52]
  TGI: > 100 µM
[53]
  TGI: 46.8 µM
[54]
  TGI: 29.9 µM
[55]
  TGI: > 100 µM
[56]
  TGI: 62.2 µM

## CC1=C(C(=O)Nc2cc(F)c(F)cc2F)C(c2ccc3c(c2)OCO3)C(C(=O)Nc2cc(F)c(F)cc2F)=C(C)N1
[1]
  TGI: 42.9 µM
[2]
  TGI: 65.2 µM
[3]
  TGI: 79.1 µM
[4]
  TGI: 60.6 µM
[5]
  TGI: 43.5 µM
[6]
  TGI: 55.1 µM
[7]
  TGI: 53.6 µM
[8]
  TGI: 75.1 µM
[9]
  TGI: 52.1 µM
[11]
  TGI: 73.1 µM
[12]
  TGI: 39 µM
[15]
  TGI: 36 µM
[16]
  TGI: 65.1 µM
[17]
  TGI: 25 µM
[18]
  TGI: 61.4 µM
[19]
  TGI: > 100 µM
[20]
  TGI: 53.8 µM
[21]
  TGI: 46 µM
[22]
  TGI: 62.5 µM
[23]
  TGI: 35.3 µM
[24]
  TGI: 80.4 µM
[25]
  TGI: > 100 µM
[26]
  TGI: 67 µM
[27]
  TGI: 69.4 µM
[28]
  TGI: 46.5 µM
[29]
  TGI: 85.3 µM
[30]
  TGI: 71.1 µM
[31]
  TGI: 78.7 µM
[32]
  TGI: 41.6 µM
[33]
  TGI: 40.6 µM
[34]
  TGI: 77.7 µM
[35]
  TGI: 59.9 µM
[36]
  TGI: > 100 µM
[37]
  TGI: 52.9 µM
[38]
  TGI: 35.6 µM
[39]
  TGI: > 100 µM
[40]
  TGI: 48.9 µM
[41]
  TGI: 87 µM
[42]
  TGI: 46.7 µM
[43]
  TGI: > 100 µM
[44]
  TGI: 52.6 µM
[45]
  TGI: 65.3 µM
[46]
  TGI: 72.7 µM
[47]
  TGI: > 100 µM
[48]
  TGI: 45.4 µM
[49]
  TGI: 62.9 µM
[50]
  TGI: > 100 µM
[51]
  TGI: 64.8 µM
[52]
  TGI: > 100 µM
[53]
  TGI: 71.5 µM
[55]
  TGI: 40.8 µM
[56]
  TGI: 26.8 µM
